The values that follow come from ChEMBL document CHEMBL1127586, “Central cholinergic agents. 6. Synthesis and evaluation of 3-[1-(phenylmethyl)-4-piperidinyl]-1-(2,3,4,5-tetrahydro-1H-1-benzazepi n-8-yl)-1-propanones and their analogs as central selective acetylcholinesterase inhibitors” (J Med Chem, 1994).

Each structure is given as a SMILES string. pIC50: −log10 of the molar value. Several values for one entry are separate records, joined by “and”; a condition that tells them apart may be missing. Identical values can stand only once.

The species named for data set [1] is Rattus norvegicus. Briefly: animal or person. The settings on record: po.
Description: Tested for effective inhibition by peroral administration
Data set [2] in a line: ED50/MED ratio. Type of data set: functional.
Data set [3] deals with Rattus norvegicus. Briefly: Peripheral cholinergic effects in male wistar rats when administered orally at a dose of 10 mg/Kg. In kind it is functional, organism-based.
Data set [4] in a line: LD50/MED ratio. In kind it is ADME. The settings on record: read-out: Therapeutic index.
For data set [5], the species on record is Rattus norvegicus.
Description: Ameliorating effects on diazepam-induced memory impairment of passive avoidance response (no of rats) by peroral administration
Data set [6] in a line: Acute toxicity in rat by peroral administration. Type of data set: organism-based. Particulars: in vivo, po.
The species named for data set [7] is Rattus norvegicus. The data set can be described thus: animal or person. Particulars: read-out: MED.
Description: Ameliorating effects on diazepam-induced memory impairment of passive avoidance response (no of rats)
The subject of data set [8] is Rattus norvegicus. Briefly: Number of circlings observed for 30 min at 1 mg/kg orally administered dose in rats. In kind it is functional. The settings on record: route oral.
For data set [9], the species on record is Rattus norvegicus. The data set can be described thus: Inhibition of circling behavior, percentage of control was reported; (p<0.05). Type of data set: functional. Also noted: scale not given: the % may be the effect or the level left.
The target of a further data set is T1, Acetylcholinesterase (Rattus norvegicus, UniProt P37136).
T1 sequence (P37136 whole entry): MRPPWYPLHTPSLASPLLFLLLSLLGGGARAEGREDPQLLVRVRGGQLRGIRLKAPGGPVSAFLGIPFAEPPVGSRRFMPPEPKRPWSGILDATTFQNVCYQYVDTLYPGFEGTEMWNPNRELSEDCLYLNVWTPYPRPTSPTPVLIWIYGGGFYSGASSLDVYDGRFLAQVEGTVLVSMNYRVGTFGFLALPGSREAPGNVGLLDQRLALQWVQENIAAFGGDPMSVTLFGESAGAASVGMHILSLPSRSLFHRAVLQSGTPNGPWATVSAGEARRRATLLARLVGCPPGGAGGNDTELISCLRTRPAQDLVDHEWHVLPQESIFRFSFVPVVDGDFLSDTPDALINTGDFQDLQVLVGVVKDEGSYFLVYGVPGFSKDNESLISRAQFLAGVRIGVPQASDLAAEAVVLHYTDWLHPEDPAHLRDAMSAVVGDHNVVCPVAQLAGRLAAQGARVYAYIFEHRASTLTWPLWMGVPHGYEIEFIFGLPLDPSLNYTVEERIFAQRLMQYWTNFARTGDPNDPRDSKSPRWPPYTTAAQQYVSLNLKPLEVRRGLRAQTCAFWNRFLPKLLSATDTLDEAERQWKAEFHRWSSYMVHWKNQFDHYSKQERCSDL

Data set [10] relates to Rattus norvegicus. The data set can be described thus: Effect of compound on peripheral cholinergic effects in male wistar rats when administered orally at a dose of 30 mg/Kg; fasciculation, lacrimation. In kind it is functional, organism-based.
The test system of data set [11] is Rattus norvegicus. Briefly: Peripheral cholinergic effects in male wistar rats when administered orally at a dose of 3 mg/Kg. In kind it is functional, organism-based.
Data set [12] concerns Rattus norvegicus. Briefly: Number of circlings observed for 30 min at 3 mg/kg orally administered dose in rats. The settings on record: route oral. Type of data set: functional.

Description for Acetylcholinesterase: Inhibition of acetylcholinesterase (AChE)

Compound `O=C(CCC1CCN(Cc2ccccc2)CC1)c1ccc2c(c1)NCCCC2` [ZANAPEZIL] yielded an ED50 in the data set filed under Rattus norvegicus [1] of 10.2 mg/kg. For the same compound, the Central selectivity in [2] stood at 10.2. Also, the Activity entry is “Fasciculation” in the data set with Rattus norvegicus [3]; “Fasciculation, Lacrimation” in the data set with Rattus norvegicus [10]; “No activity” with Rattus norvegicus [11]. Moreover, the selectivity ratio in [4] came out at 334. For the same compound, in the data set listed under Rattus norvegicus [5], the Avoidance time was 106.6 s and 192.2 s and 193.2 s. In data set [6], the LD50 amounted to 334 mg/kg. In the data set filed under Rattus norvegicus [7], the minimal effective dose amounted to 1 mg/kg. Moreover, the No. of circlings was 87.5 with Rattus norvegicus [8] and 75.1 in the data set with Rattus norvegicus [12]. The compound also registered a Control in the data set filed under Rattus norvegicus [9] of 69.9%. Further, the pIC50 at Acetylcholinesterase is 7.01.

A word on the ED50: it is the midpoint of the dose-response relation. For orientation: LD50 means the dose at which mortality reaches 50%. In general, pIC50 refers to the negative decadic logarithm of the IC50, by convention in mol/L.
